From patent US4027039A (priority 1975, dated 1977)
Where two headings read alike, the source gives them in different places.

Experiments:
Influenza PR 8 virus = experiment: Influenza PR 8 in mice, oral; schedule by table; late read day 6 (Table 37), 7 (33, 36), 8 (32, 35, 47), 10 (38); control fraction 18/20 (Table 32), 19/20 (Table 35), else 100%; assay type: in vivo, mouse; details: of 41 tests
[1] = test system: Influenza B Massachusetts virus; experiment: Influenza B Mass. in mice, oral; late read day 5 (Table 39), 7 (Table 40), 11 (Tables 61, 65); control fraction 16/20 (Table 61), else 100%; assay type: in vivo, mouse
Procedure: A portion of a commercially available sample of amantadine was recrystallized from isopropanol. The activity of the material against Influenza B Mass. was tested for the sample as obtained, the recrystallized portion, and the mother liquor obtained from recrystallizing the portion.

[2] = test system: Influenza, Ann Arbor virus; experiment: Influenza Ann Arbor in mice, oral; schedule by table; late read day 5 (Tables 15, 25, 29, 30), 6 (18, 20, 22, 23, 26, 27, 28, 54), 7 (14, 19, 21, 24, 53, 56), 8 (16, 17, 51), 9 (11, 55); assay type: in vivo, mouse
[3] = test system: Influenza B Massachusetts virus; details: larger doses and different dose schedules, literature; cited from earlier work
viral infections = experiment: Antiviral screening in animals, general statements; details: mouse, in vivo
[4] = test system: infectious canine hepatitis; details: 50 mg/kg; cited from earlier work
cells = experiment: Plaque reduction and cytotoxicity in cells; assay type: cell-based
Text: It is well known in virology that cells injured due to toxic substances will not support the growth of viruses.

polio and Vaccinia virus = details: cytopathic effect; cited from earlier work

NC12CC3CC(CC(C3)C1)C2 [Commercial amantadine, amantadine, reference compound]
instances of increased geometric mean survival time (Influenza PR 8 virus): 11
statistically significant number of survivors in one single instance (Influenza PR 8 virus): 3
No. animals surviving after 11 days ([1]; total dose 60 ng): 3
No. animals surviving after 11 days ([1]; total dose 600 ng): 3
Survivors ([1]; total dose 600 ng): 3
No. animals surviving after 11 days ([1]; total dose 6 μg): 7
Survivors ([1]; total dose 6 μg): 5
No. animals surviving after 11 days ([1]; total dose 60 μg): 3
Survivors ([1]; total dose 60 μg): 2
No. animals surviving after 11 days ([1]; total dose 600 μg): 5
Survivors ([1]; total dose 600 μg): 5
No. animals surviving after 11 days ([1]; total dose 6 mg): 4
Survivors ([1]; total dose 6 mg): 2
occasions with survivors ([2]; of 18 tests): 5
effect against Influenza B Massachusetts [3]: ineffective
activity in words (viral infections): inactive against all of the other viruses in the test system

O=C(CCNNC(=O)c1ccncc1)NCc1ccccc1 [Nialamide, nialamide, reference compound]
Survivors ([2]; total dose 400 pg): 1
Survivors ([2]; total dose 4 ng): 1
Survivors ([2]; total dose 40 ng): 0
Survivors ([2]; total dose 400 ng): 0
Survivors ([2]; total dose 4 μg): 0
Survivors ([2]; total dose 400 μg): 2
Survivors ([2]; total dose 4 mg): 1
treated animals survived [4]: 15 of 16

NN.O=S(=O)(O)O [Hydrazine Sulfate, hydrazine sulfate]
toxic effects on the cells (cells; 10 to 100 mg/ml): toxic effects on the cells were clearly evident
antiviral activity, plaque reduction (cells; below the level of toxicity): no antiviral activity was demonstrated
No. animals surviving after 6-9 days (Herpes virus; total dose 5 μg): 3
No. animals surviving after 6-9 days (Herpes virus; total dose .0005 μg): 3
No. animals surviving when 100% (or given fraction) of controls are dead (Herpes virus; total dose .0005 μg): 3
Survivors (Herpes virus; total dose .0005 μg): 3
No. animals surviving after 6-9 days (Herpes virus; total dose .005 μg): 4
No. animals surviving when 100% (or given fraction) of controls are dead (Herpes virus; total dose .005 μg): 4
Survivors (Herpes virus; total dose .005 μg): 4
No. animals surviving after 6-9 days (Herpes virus; total dose .05 μg): 1
No. animals surviving when 100% (or given fraction) of controls are dead (Herpes virus; total dose .05 μg): 1
Survivors (Herpes virus; total dose .05 μg): 0
No. animals surviving after 6-9 days (Herpes virus; total dose .5 μg): 3
Survivors (Herpes virus; total dose .5 μg): 1
concentrations with antiviral activity (polio and Vaccinia virus): 8 to 66 µg/mL
